Test results from patent US12502440B2, “Cross-linking compounds and methods of use thereof” (North Carolina State University, priority 2019, dated 2025).
Where “and” joins values, the source holds several entries; their conditions need not be identical. Equal entries are not always repeated.

What was measured:
[1] = target: T1, β-glucosidase from Agrobacterium sp. (Agrobacterium sp., UniProt P12614); experiment: Oligomerization of compound V with β-glucosidase; format: biochemical
T1 construct: purchased Megazyme
T1 sequence (P12614 1-459): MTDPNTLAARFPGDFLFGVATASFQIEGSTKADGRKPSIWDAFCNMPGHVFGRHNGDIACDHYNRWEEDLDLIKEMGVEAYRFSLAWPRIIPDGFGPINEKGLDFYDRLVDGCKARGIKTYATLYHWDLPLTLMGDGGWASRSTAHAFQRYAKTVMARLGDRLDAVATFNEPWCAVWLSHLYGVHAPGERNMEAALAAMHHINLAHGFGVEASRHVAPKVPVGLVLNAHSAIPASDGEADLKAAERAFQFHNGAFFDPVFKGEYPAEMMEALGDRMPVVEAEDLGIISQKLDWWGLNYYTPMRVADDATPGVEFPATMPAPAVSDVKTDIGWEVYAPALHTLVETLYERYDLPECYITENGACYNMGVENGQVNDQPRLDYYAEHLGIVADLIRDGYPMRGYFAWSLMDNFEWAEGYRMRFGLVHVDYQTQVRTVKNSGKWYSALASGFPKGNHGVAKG
Method: The oligomerization of compound V was examined by treatment with the enzyme-glucosidase. The reaction mixture contained 50 μM of compound V and 200 nM of β-glucosidase (250-fold ratio). The reaction mixture was only faintly blue but upon centrifugation after 5 h of incubation, a blue precipitate was obtained. According to the colors of samples (FIG. 13, panel A), the yield of precipitate is low by comparison with our previously reported enzyme-substrate pairs (see Example 1). Multiple additions of enzyme (4×0.20 μM of enzyme stock, every 2 h) and longer incubation times (10 h or 24 h) were also tested but no increase in solution intensity or precipitate was observed. For the samples after 300 min of incubation, the precipitates suspended in H2O were screened by optical microscopy (FIG. 13, panel B) and DLS (FIG. 13, panel C). The size of aggregates is between 100 and 1000 nm as measured by DLS, which is consistent with the images obtained by optical microscopy (˜1 μm).
Quantitation of the indigogenic compounds in the precipitate and supernatant was carried out by absorption spectroscopy and multicomponent analysis (MCA) (M. Taniguchi, et al., Photochem. Photobiol., 2018, 94, 277-289) (FIG. 13, panels D and E). MCA analysis is essential due to the overlaid spectra of indigo and coumarin at 362 nm, the peak wavelength for the coumarin. Spectral deconvolution relied on knowledge of the molar absorption coefficient at 362 nm of coumarin (εcou362=2.0×10^4 M^−1 cm^−1, measured in DMF) and indigo model compound F19 (see Example 1 where F-19 is compound 43) shown in Chart 2 (εind362=0.81×10^4 M^−1 cm^−1, measured in DMSO/H2O, v/v=2/1); and the molar absorption coefficient of F19 at 630 nm (εind630=2.6×10^4 M^−1 cm^−1, measured in DMSO/H2O, v/v=2/1). The residual upon MCA was smaller than any of the components, as required for accurate analysis (Y. Zhang, et al., Phytochem. Anal., 2018, 29, 205-216). In this manner, the precipitate is composed of 51.6 nmol of coumarin and 2.8 nmol of indigoid dye; the supernatant is composed of 11.1 nmol of coumarin and 0.3 nmol of indigoid dye.
Materials. DMF (HPLC grade) was purchased from Alfa Aesar. H2O (molecular biology grade) for buffer preparation was purchased from Millipore Sigma. Compound V (5.6 mg) was dissolved in DMF (26 μL) to prepare 100 mM stock solution. Pi buffer was prepared freshly at 10 mM, pH 7. The enzyme β-glucosidase from Agrobacterium sp. was purchased from MegaZyme and was dissolved in Pi buffer at 10 μM to prepare the stock solution.
To screen the oligomerization procedure of compound V, samples of Pi buffer (1859 μL), DMF (100 μL), […]-glucosidase stock (40 μL) and compound V stock (1 μL) were mixed in a 2-mL Eppendorf tube. The resulting mixed sample (2.0 mL) contains 50 μM of compound V as the substrate and 0.20 μM of β-glucosidase as the enzyme. Three identical samples were prepared for different assays. For a control sample, 40 μL of Pi buffer was added as a replacement for the β-glucosidase stock solution. The tubes were incubated at 37° C. for 5 h, and pictures of the tubes were captured at 0, 15, 30, 60, 120, 180 and 300 min. After 300 min, the tubes were centrifuged at 20,000×g for 10 min to isolate any precipitate from the supernatant. No precipitate formed in the control sample.
Three samples were treated differently for three assays: (1) for sample 1, the precipitate was dissolved in 100 μL of DMF for absorption screening; (2) for sample 2, the precipitate was suspended in 100 μL of H2O for microscopic imaging; and (3) for sample 3, the precipitate was suspended in 1000 μL of H2O for dynamic light scattering (DLS) assay. The supernatant of sample 1 was freeze-dried under high vacuum and afterwards dissolved in 100 μL of DMF for absorption screening. The absorption spectra of the precipitates and supernatants were employed for quantitation of indigo and coumarin. […]

[2] = tested on: β-glucosidase from almonds; experiment: Indigogenic reaction with β-glucosidase from almonds; format: biochemical; settings: as E1 but ε measured for 43 (footnote g)
[3] = target: T2, β-glucosidase from Agrobacterium plus rat liver homogenate (Agrobacterium sp., UniProt P12614); experiment: Reaction of 33 with β-glucosidase from Agrobacterium in rat liver homogenate; format: biochemical; settings: 33 100 μM, enzyme 200 nM, rat liver homogenate with 2% DMF, 37° C., 4 h; ε measured for 43 (footnotes g,h)
T2 construct: purchased Megazyme
T2 sequence (P12614 1-459): T1 sequence (P12614 1-459)
Method: Reaction of 33 with β-glucosidase from Agrobacterium in rat liver homogenate. A DMF solution of 33 (2 μL, 5 mM) and β-glucosidase from Agrobacterium in 10 mM phosphate buffer [2 μL, 10 μM, pH 7.0, containing 50 mM NaCl and 0.6 M (NH4)2SO4] were mixed with rat liver homogenate (96 μL). The reaction mixture was incubated at 37° C. for 4 h and then centrifuged for 3 min. Any precipitate was separated from the supernatant and then suspended in DMF (200 μL). The suspension was centrifuged for 3 min. The supernatant was analyzed by absorption spectroscopy.

[4] = target: T3, β-glucosidase from Agrobacterium (Agrobacterium sp., UniProt P12614); experiment: Indigogenic reaction with β-glucosidase from Agrobacterium; format: biochemical; settings: as E4 but ε measured for 43 (footnote g)
T3 construct: purchased Megazyme
T3 sequence (P12614 1-459): T1 sequence (P12614 1-459)
Method: Next, the β-glucosidase from Agrobacterium sp. was investigated as the trigger enzyme for indigoid dye formation. […] The reaction was carried out using the enzyme (200 nM) and indoxyl-glucoside 33 (100 μM) in phosphate buffer (pH 4-9, containing 2% DMF) at 37° C. […] Note that with 200 nM enzyme and 100 μM substrate, complete reaction requires 500 turnovers of each enzyme.
Reactions with β-glucosidase from Agrobacterium. An indoxyl compound in DMF (2 μL, 5 mM) and β-glucosidase from Agrobacterium in 10 mM phosphate buffer [2 μL, 10 μM, pH 7.0, containing 50 mM NaCl and 0.6 M (NH4)2SO4] were mixed with 50 mM phosphate buffer (96 μL, pH 7.0). The reaction mixture was incubated at 37° C. for 2 h and then centrifuged for 3 min. Any precipitate was separated from the supernatant and dissolved in DMF (200 μL). The resulting solution was analyzed by absorption spectroscopy. The experiment was repeated three times.

rat liver homogenate = experiment: Indigoid-dye formation in rat liver homogenate; format: biochemical; settings: as E7 but ε measured for 43 (footnote g)
Method: Finally, indigoid-dye formation was carried out in rat liver homogenate (Table 1, rightmost column).
Reactions in rat liver homogenate. An indoxyl compound in DMF (5 μL, 20 mM) was mixed with rat liver homogenate (95 μL). The reaction mixture was incubated at 37° C. for 24 h. After allowing to cool to room temperature, the reaction mixture was diluted with DMF (900 μL). The mixture was heated at 70° C. for 2 min and then centrifuged for 2 min. The supernatant was separated from any precipitate. This extraction procedure was repeated two or three times with DMF (100-500 μL). The combined supernatant (1500-1800 μL) was analyzed by absorption spectroscopy.

[5] = Solubility in aqueous buffer; format: physicochemical; settings: 100 mM phosphate buffer (pH 7.4, containing 100 mM NaCl), room temperature
Excerpt: Water solubility of the indoxyl glucoside is important for biological applications. […] Therefore, this compound is not suitable for bioconjugation. The synthesis of 34 relies on successive substitution of the dichloroanilinotriazine unit (derived from N,N-bis(2-methoxyethyl)aniline^31 and cyanuric chloride) with indoxyl-glucoside-PEG-OH and BCN-PEG-NH2 building blocks.
To improve the water solubility of the indoxyl species, a sulfobetaine unit^32,33 was incorporated as a water-solubilizing group. Sulfobetaines are stable zwitterions over a wide range of pH. Synthesis of an indoxyl bearing a sulfobetaine unit is illustrated in Scheme 6. Boc-piperazine (35) was treated with 1,3-propane sultone to afford 36 in 63% yield. Quaternization of the tertiary nitrogen atom in 36 with 3-bromopropanol gave Boc-protected sulfobetaine 37 in 69% yield. The Boc group was cleaved with trifluoroacetic acid (TFA) to afford piperazine-TFA salt 38 in 97% yield. The N-acetyl group of 32 was selectively deprotected with NaHCO3/MeOH in 84% yield. The product 39, piperazine-TFA salt 38, and BCN-amine 14 were assembled at a triazine ring via one-flask, successive substitution of cyanuric chloride to afford 40 in 51% yield. Cleavage of the acetyl groups of sulfobetaine 40 provided 41 in 98% yield.

[6] = 50 μM compound V (100 nmol), 200 nM β-glucosidase, 37° C., 300 min, MCA
[7] = 50 μM compound V (100 nmol), 200 nM β-glucosidase, 37° C., 300 min, absorption spectroscopy with MCA

SMILES: Cc1cc(=O)oc2cc(NCCNc3nc(NCCOCCOCCOCCOCCOCCN=[N+]=[N-])nc(OCCC[N+]4(CCCS(=O)(=O)[O-])CCN(c5nc(OCCOCCOCCOc6c(Br)cc7[nH]cc(O[C@@H]8O[C@H](CO)[C@@H](O)[C@H](O)[C@H]8O)c7c6Br)nc(OCCOCCOCCOc6c(Br)cc7[nH]cc(O[C@@H]8O[C@H](CO)[C@@H](O)[C@H](O)[C@H]8O)c7c6Br)n5)CC4)n3)ccc12 [Compound V, 2,4-Bis[1-(3-(β-D-glucopyranosyloxy)-4,6-dibromo-1H-indol-5-yl)-1,4,7,10-tetraoxadec-10-yl]-6-[4-(3-(2-(1-azido-3,6,9,12,15-pentaoxoheptadecylamino)-4-[2-((4-methyl-2H-chromen-2-one-7-yl)amino)ethylamino]-1,3,5-triazin-6-yloxy)propyl)-4-(3-sulfopropyl)piperazin-1-yl]-1,3,5-triazine]
- total amount of coumarin calculated by MCA ([1]; 100 nmol compound V added): 62.7 nmol
- coumarin in the precipitate [1, 6]: 51.6 nmol
- coumarin in the supernatant [1, 6]: 11.1 nmol
- indigoid dye in the precipitate [1, 7]: 2.8 nmol
- indigoid dye in the supernatant [1, 7]: 0.3 nmol
- total quantity of indigoid dye ([1]; precipitate plus supernatant, 100 nmol compound V added): 3.1 nmol
- yield of indigoid dye ([1]; total indigoid dye, 100 nmol compound V added): 3.1%

SMILES: OCCOCCOCCOc1c(Br)cc2[nH]cc(O[C@@H]3O[C@H](CO)[C@@H](O)[C@H](O)[C@H]3O)c2c1Br [compound 33, 4,6-Dibromo-5-[1-hydroxy-3,6,9-trioxanon-9-yl]-1H-indol-3-yl β-D-glucopyranoside]
- Yield (%) of indigoid dye, β-glucosidase from almonds [2]: 52% and 52^g %
- Yield (%) of indigoid dye, β-glucosidase from Agrobacterium plus rat liver homogenate [3]: 81% and 81 ± 5%
- Yield (%) of indigoid dye, β-glucosidase from Agrobacterium [4]: 99% and 99 ± 5^g %
- Yield (%) of indigoid dye, rat liver homogenate (rat liver homogenate): < 5%

SMILES: O=C(NCCOCCOCCNc1nc(OCCOCCOCCOc2c(Br)cc3[nH]cc(OC4O[C@H](CO)[C@@H](O)[C@H](O)[C@H]4O)c3c2Br)nc(N2CC[N+](CCCO)(CCCS(=O)(=O)[O-])CC2)n1)OC[C@@H]1[C@@H]2CCC#CCC[C@@H]21 (stereo partly shown) [compound 41]
- solubility [5]: > 400 µM
- Yield (%) of indigoid dye, β-glucosidase from Agrobacterium [4]: 106% and 106 ± 4^g %
